≈ marks a conversion by molar mass, not a printed value. Calls of active or inactive are those of the source. No cut-off for these calls is given here.
Key:
[1] = system: Rattus norvegicus; assay: Antiinflammatory activity in Wister Albino rat assessed as inhibition of paw edema at 1.5 mg/kg, po after 3hrs; format: functional
[2] = system: Rattus norvegicus; assay: Antiinflammatory activity in Wister Albino rat assessed as inhibition of paw edema at 50 mg/kg, po after 3hrs; format: functional
[3] = system: Escherichia coli; assay: Antibacterial activity against Escherichia coli ATCC 25922 by disc diffusion method; format: functional; conditions: for MIC: Escherichia coli, ATCC 25922
[4] = system: Pseudomonas aeruginosa; assay: Antibacterial activity against Pseudomonas aeruginosa ATCC 27853 by disc diffusion method; format: functional; conditions: for MIC: Pseudomonas aeruginosa, ATCC 27853
[5] = system: Staphylococcus aureus; assay: Antibacterial activity against Staphylococcus aureus ATCC 25923 by disc diffusion method; format: functional; conditions: for MIC: Staphylococcus aureus, ATCC 25923, read-out: MIC
[6] = system: Klebsiella pneumoniae; assay: Antibacterial activity against Klebsiella pneumoniae by disc diffusion method; format: functional; conditions: for MIC: Klebsiella pneumoniae
[7] = system: Talaromyces marneffei; assay: Antifungal activity against Penicillium marneffei by serial plate dilution method; format: functional; conditions: for MIC: Talaromyces marneffei
[8] = system: Aspergillus flavus; assay: Antifungal activity against Aspergillus flavus NCIM 524 by serial plate dilution method; format: functional; conditions: for MIC: Aspergillus flavus, NCIM 524
[9] = system: Aspergillus fumigatus; assay: Antifungal activity against Aspergillus fumigatus NCIM 902 by serial plate dilution method; format: functional; conditions: for MIC: Aspergillus fumigatus, NCIM 902
[10] = system: Trichophyton benhamiae; assay: Antifungal activity against Trichophyton mentagrophytes by serial plate dilution method; format: functional, Arthroderma benhamiae; conditions: for MIC: Trichophyton benhamiae
[11] = system: Mus musculus; assay: Anticonvulsant activity in Swiss Albino mouse assessed as duration of seizure at 2 mg/kg, po by PTZ induced seizure test; format: functional
[12] = system: Mus musculus; assay: Anticonvulsant activity in Swiss Albino mouse assessed as duration of seizure at 50 mg/kg, po by PTZ induced seizure test; format: functional
[13] = system: Mus musculus; assay: Anticonvulsant activity in Swiss Albino mouse assessed as mortality at 50 mg/kg, po by PTZ induced seizure test; format: functional, organism-based; parameters: dose 50 mg/kg
[14] = system: Mus musculus; assay: Antianxiety study in Swiss Albino mouse assessed as ratio of number of entreis in open arm to total entries at 50 mg/kg by elevated plus maze test; format: functional
[15] = system: Mus musculus; assay: Antianxiety study in Swiss Albino mouse assessed as time spent in open arm at 50 mg/kg by elevated plus maze model; format: functional
[16] = system: Mus musculus; assay: Effect on coordination in Swiss Albino mouse at 50 mg/kg by rotarod accelorod test; format: functional
[17] = species: Mus musculus; assay: Effect on learning and memory in Swiss Albino mouse assessed as latent period on second day; format: functional
[18] = species: Mus musculus; assay: Effect on learning and memory in Swiss Albino mouse assessed as latent period on first day; format: functional
[19] = system: Mus musculus; assay: Antianxiety study in Swiss Albino mouse assessed as time spent in close arm at 50 mg/kg by elevated plus maze model; format: functional
[20] = system: Mus musculus; assay: Anticonvulsant activity in Swiss Albino mouse assessed as latency period at 50 mg/kg, po by PTZ induced seizure test; format: functional, organism-based; parameters: dose 50 mg/kg

SMILES	inhibition in vivo at 50 mg/kg [2]	inhibition zone (IZ) [3]	MIC [3]	inhibition zone (IZ) [4]	MIC [4]	inhibition zone (IZ) [5]	MIC [5]	inhibition zone (IZ) [6]	MIC [6]	inhibition zone (IZ) [7]	MIC [7]	inhibition zone (IZ) [8]	MIC [8]	inhibition zone (IZ) [9]	MIC [9]	inhibition zone (IZ) [10]	MIC [10]	Activity [11]	Activity [12]	Activity [13]	other results
COc1ccc2c(c1)c(CC(=O)O)c(C)n2C(=O)c1ccc(Cl)cc1 [INDOMETHACIN]																					inhibition in vivo at 1.5 mg/kg [1]: 53.3%
Cc1nn2c(=O)c3c4c(sc3nc2s1)CCCC4	34.6%	18 mm	10 µg/mL (≈ 36.1 µM)	22 mm	6.25 µg/mL (≈ 22.5 µM)	20 mm	10 µg/mL (≈ 36.1 µM)	20 mm	10 µg/mL (≈ 36.1 µM)	16 mm	12.5 µg/mL (≈ 45.1 µM)	12 mm	80 µg/mL (≈ 288 µM)	16 mm	12.5 µg/mL (≈ 45.1 µM)	7 mm	> 100 µg/mL	3600 s	0 s	Active	Activity [14]: 16.67%; Activity [15]: 4 s; Activity [16]: 284 s; Activity [17]: 25 s; Activity [18]: 39 s; Activity [19]: 285 s
CN1C(=O)CN=C(c2ccccc2)c2cc(Cl)ccc21																					Activity [20]: Active
Cc1cc(C)cc(-c2nn3c(=O)c4c5c(sc4nc3s2)CCCC5)c1	31.1%	16 mm	60 µg/mL (≈ 163 µM)	18 mm	60 µg/mL (≈ 163 µM)	8 mm	> 100 µg/mL	20 mm	10 µg/mL (≈ 27.2 µM)	18 mm	12.5 µg/mL (≈ 34 µM)	7 mm	> 100 µg/mL	18 mm	12.5 µg/mL (≈ 34 µM)	9 mm	80 µg/mL (≈ 218 µM)	68 s	0 s	Active	Activity [14]: 7.14%; Activity [15]: 56 s; Activity [16]: 256 s; Activity [17]: 18 s; Activity [18]: 34 s; Activity [19]: 231 s

— ChEMBL document CHEMBL1146350, “Synthesis of some new bioactive 3-amino-2-mercapto-5,6,7,8-tetrahydro[1]benzothieno[2,3-d]pyrimidin-4(3H)-one derivatives” (2007)
